# Data from patent US12576099B2, “Ribose-modified cap analog and use thereof” (Beijing Youcare Kechuang Pharmaceutical Technology Co., Ltd., priority 2024, dated 2026).
# Columns and labels:
# [1] = Characterization of lipid nanoparticles encapsulating Fluc-mRNA prepared from different cap structures; type: physicochemical; details: for Particle size: LNP (YK-009/DSPC/cholesterol/DMG-PEG2000) with Fluc-mRNA transcribed using the named cap analog; for PDI: LNP with Fluc-mRNA transcribed using the named cap analog; for EE: encapsulation efficiency of LNP with Fluc-mRNA transcribed using the named cap analog
# Description: Cationic lipid YK-009 (Beijing Youcare Kechuang Pharmaceutical Technology Co., Ltd.), DSPC (AVT (Shanghai) Pharmaceutical Technology Co., Ltd.), cholesterol (AVT (Shanghai) Pharmaceutical Technology Co., Ltd.), and DMG-PEG2000 were dissolved in ethanol at a molar ratio of 49:10:39.5:1.5, and the mRNA was diluted in 50 mM citrate buffer (pH=4). The ethanol lipid solution was mixed with the Fluc-mRNA aqueous solution prepared from different cap structures at a volume ratio of 1:3 using a microfluidic device at a flow rate of 10 mL/min to prepare LNPs at a weight ratio of total lipid to mRNA of approximately 15:1.
# The resulting liposomes were diluted to 10-fold volume with PBS, and then ultrafiltered with a 300 KDa ultrafiltration tube to remove ethanol. The volume was then fixed to a certain volume with PBS. Finally, the LNPs were filtered through a 0.2 μm sterile filter to obtain an LNP preparation encapsulating Fluc-mRNA using YK-009/DSPC/cholesterol/DMG-PEG2000 (at a molar ratio of 49:10:39.5:1.5).
# The particle size and polydispersity index (PDI) were determined by dynamic light scattering using a Malvern laser particle size analyzer. 10 μL of the liposome solution was taken, diluted to 1 mL with RNase-free deionized water, and added to a sample pool. Each sample was measured in triplicate. The measurement conditions were: a scattering angle of 90° and a temperature of 25° C. The encapsulation efficiency of LNPs was determined using the Quant-iT RiboGreen RNA Quantification Kit (Thermo Fisher Scientific, UK) according to the manufacturer's instructions.
# HEK293T cells = assay: Translation efficiency of different capped luciferase mRNAs; type: cell-based; details: for Relative fluorescence intensity: HEK293T, 0.5 μg mRNA per well, 24 hours, proportional to translation efficiency; for Multiple of m6A (relative fluorescence intensity): relative to m6A
# Description: • (1) HEK293T cells were cultured in DMEM medium containing 10% FBS and penicillin/streptomycin at 37° C. with 5% CO2. • (2)Cells in the culture dish were digested and counted, then spread in a 96-well plate at 10,000 cells per well, and cultured overnight until the cells adhered to the wall. • (3) When the cell density reached approximately 80%, transfection was performed by adding 0.5 μg of mRNA sample and Lipofectamine MessengerMAX Transfection Reagent (Invitrogen) per well according to the manufacturer's instructions. • (4) After the transfected cells were cultured at 37° C. with 5% CO2 for 24 hours, the growth medium was removed from the cells to be tested, and the cells were rinsed with PBS. After centrifugation to remove PBS, 50 μL of 1× lysis buffer was added. The cells and all liquid were transferred to a microcentrifuge tube and centrifuged. • (5) 20 μL of sample was taken and added to 100 μL of Dual-Lumi™ II Luciferase Assay Reagent pre-equilibrated to room temperature, and mixed appropriately. • (6) The mixture was incubated at room temperature (approximately 25° C.) for 5 minutes to stabilize the luminescence signal. Chemiluminescence was detected using a multifunctional microplate reader with a function for detecting chemiluminescence, and the data were recorded.
# The relative fluorescence intensity is proportional to the translation efficiency of mRNA.
# DCP2 enzyme = biological target: T1, DCP2 enzyme (Schizosaccharomyces pombe, UniProt O13828); assay: Decapping enzyme stability test; type: biochemical; details: for Decapping rate (%) of DCP2 enzyme: 50 U mRNA decapping enzyme, 37° C., 45 minutes
# T1 construct: purchased New England Biolabs
# T1 sequence (O13828 1-243 limits assumed): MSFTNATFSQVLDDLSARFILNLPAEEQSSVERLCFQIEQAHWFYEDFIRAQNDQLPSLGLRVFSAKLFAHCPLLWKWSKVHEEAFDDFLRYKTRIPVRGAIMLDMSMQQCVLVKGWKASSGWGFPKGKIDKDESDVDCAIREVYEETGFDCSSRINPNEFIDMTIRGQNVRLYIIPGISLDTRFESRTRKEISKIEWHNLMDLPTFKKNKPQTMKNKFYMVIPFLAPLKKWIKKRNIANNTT
# T1 sequence (Q9P805 1-127 partner): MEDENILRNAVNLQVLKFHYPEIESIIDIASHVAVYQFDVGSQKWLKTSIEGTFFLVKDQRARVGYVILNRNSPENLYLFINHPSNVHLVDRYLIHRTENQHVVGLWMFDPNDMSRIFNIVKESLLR
# T1 sequence (Q10108 155-180 partner limits assumed): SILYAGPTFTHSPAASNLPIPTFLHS
# Description: […] of RNA purified by polyacrylamide gel electrophoresis (PAGE) was subjected to an enzymatic reaction with 50 U of mRNA decapping enzyme (New England Biolabs) and 1×MDE buffer at 37° C. for 45 minutes. The enzymatic reactants were subjected to PAGE and stained with SYBR Green II (Lonza), followed by observation of the post-electrophoresis gel image on a Typhoon FLA 7000 (GE Healthcare) instrument. The electrophoresis band intensity ratio of RNA capping to RNA decapping was counted using ImageQuant (GE Healthcare) software, and the decapping rate of the decapping enzyme was calculated.
# BALB/C mice = assay: In vivo imaging of Fluc-mRNA LNP expression in mice
# Description: The LNP preparation containing 5 μg of cap analog-transcribed Fluc-mRNA was intramuscularly injected into female BALB/C mice aged 4 to 6 weeks and weighing 17 to 19 g. At specific time points after administration (6 hours, 12 hours, 24 hours, 48 hours, 96 hours, and 168 hours), the mice were intraperitoneally injected with fluorescence imaging substrate. The mice were then allowed to move freely for 5 minutes, followed by detection of the total radiation intensity of the protein expressed by LNP-carrying mRNA in the mice using an IVIS Spectrum small-animal in vivo imaging system (corresponding to the amount of protein expression).
# In the in vivo imaging experiments in mice, the multiple of the total radiation intensity for each group of mice relative to the m6A group is shown in Table 8 (where the total radiation intensity is represented as the given value×10^8 p/s).
# [2] = 6 h, 5 μg Fluc-mRNA LNP intramuscular, mice
# [3] = 12 h, 5 μg Fluc-mRNA LNP intramuscular, mice
# [4] = 24 h, 5 μg Fluc-mRNA LNP intramuscular, mice
# [5] = 48 h, 5 μg Fluc-mRNA LNP intramuscular, mice
# [6] = 96 h, 5 μg Fluc-mRNA LNP intramuscular, mice
# [7] = 168 h, 5 μg Fluc-mRNA LNP intramuscular, mice
Particle size [1],PDI [1],EE [1],Decapping rate (%) of DCP2 enzyme (DCP2 enzyme),Decrease relative to N-7113 (decapping rate) (DCP2 enzyme),SMILES,Relative fluorescence intensity (HEK293T cells),Multiple of m6A (relative fluorescence intensity) (HEK293T cells),Multiple of total radiation intensity relative to m6A (BALB/C mice; 6 h),Total radiation intensity (BALB/C mice; [2]),Multiple of total radiation intensity relative to m6A (BALB/C mice; 12 h),Total radiation intensity (BALB/C mice; [3]),Multiple of total radiation intensity relative to m6A (BALB/C mice; 24 h),Total radiation intensity (BALB/C mice; [4]),Multiple of total radiation intensity relative to m6A (BALB/C mice; 48 h),Total radiation intensity (BALB/C mice; [5]),Multiple of total radiation intensity relative to m6A (BALB/C mice; 96 h),Total radiation intensity (BALB/C mice; [6]),Total radiation intensity (BALB/C mice; [7]),Total radiation intensity (BALB/C mice; at 12 hours),Total radiation intensity (BALB/C mice; at 48 hours)
81.34 nm,0.035,96.3%,28.3%,15.5%,"CCO[C@@H]1[C@H](OP(=O)(O)OC[C@H]2O[C@@H](n3cnc4c(=O)[nH]c(N)nc43)[C@H](O)[C@@H]2O)[C@@H](COP(=O)(O)OP(=O)(O)OP(=O)(O)OC[C@H]2O[C@@H]([n+]3cn(C)c4c(=O)[nH]c(N)nc43)[C@H](O)[C@@H]2O)O[C@H]1n1cnc2c(N)ncnc21 [CAP-2′O-ethyl, reference compound]",1.13,3.0,2.3,5.41 ×108 p/s,2.3,4.80 ×108 p/s,2.6,1.73 ×108 p/s,1.1,0.57 ×108 p/s,2.4,0.09 ×108 p/s,0.02 ×108 p/s,,
75.35 nm,0.058,95.1%,23.3%,20.5%,"COC[C@H]1[C@@H](O)[C@H]([n+]2cn(C)c3c(=O)[nH]c(N)nc32)O[C@@H]1COP(=O)(O)OP(=O)(O)OP(=O)(O)OC[C@H]1O[C@@H](n2cnc3c(N)ncnc32)[C@H](OC)[C@@H]1OP(=O)(O)OC[C@H]1O[C@@H](n2cnc3c(=O)[nH]c(N)nc32)[C@H](O)[C@@H]1O [HN3002, reference compound]",,3.0,,,,,,,,,,,,,
87.45 nm,0.078,96.1%,43.8%,0.0%,"CO[C@@H]1[C@H](OP(=O)(O)OC[C@H]2O[C@@H](n3cnc4c(=O)[nH]c(N)nc43)[C@H](O)[C@@H]2O)[C@@H](COP(=O)(O)OP(=O)(O)OP(=O)(O)OC[C@H]2O[C@@H]([n+]3cn(C)c4c(=O)[nH]c(N)nc43)[C@H](O)[C@@H]2O)O[C@H]1n1cnc2c(N)ncnc21 [N-7113, reference compound]",1.00,2.6,2.2,5.10 ×108 p/s,2.0,4.33 ×108 p/s,2.3,1.49 ×108 p/s,0.9,0.49 ×108 p/s,2.4,0.05 ×108 p/s,0.02 ×108 p/s,4.33 ×10^8 p/s,0.49 ×10^8 p/s
75.76 nm,0.047,93.8%,33.8%,10.0%,"CNc1ncnc2c1ncn2[C@@H]1O[C@H](COP(=O)(O)OP(=O)(O)OP(=O)(O)OC[C@H]2O[C@@H]([n+]3cn(C)c4c(=O)[nH]c(N)nc43)[C@H](O)[C@@H]2O)[C@@H](OP(=O)(O)OC[C@H]2O[C@@H](n3cnc4c(=O)[nH]c(N)nc43)[C@H](O)[C@@H]2O)[C@H]1OC [m6A, reference compound]",0.38,1.0,1.0,2.35 ×108 p/s,1.0,2.12 ×108 p/s,1.0,0.66 ×108 p/s,1.0,0.52 ×108 p/s,1.0,0.08 ×108 p/s,0.02 ×108 p/s,2.12 ×10^8 p/s,0.52 ×10^8 p/s
